Results: patent US20240390487A1, “TLR AGONISTS FOR REDUCING ACTIVATION-INDUCED PD-1 EXPRESSION ON T CELLS AND METHODS OF USE” (WISCONSIN ALUMNI RESEARCH FOUNDATION, priority 2016, published 2024)
Entries after “also recorded” stand apart in the source; their conditions may differ.

Legend:
[1] = tested on: SSX2-expressing sarcoma cells; experiment: SSX2 tumor treatment study: DNA vaccine with or without TLR agonist; type: in vivo, mice; conditions: for anti-tumor efficacy / tumor growth suppression in combination with DNA vaccine: TLR agonist with DNA vaccine versus vaccine alone; for effect on tumor growth of TLR agonist alone (with vector DNA): with control vector pTVG4
Procedure: Mice expressing human HLA-A2 were injected subcutaneously with SSX2-expressing sarcoma cells. Starting one day after inoculation, and every 7 days thereafter, mice were vaccinated with a DNA vaccine encoding SSX2, an optimized version of SSX2 with increased affinity for HLA-A2 (pTVG-SSX2 opt) or negative control vector pTVG4. All were done with or without TLR1/2 agonist or TLR7 agonist mixed with the DNA. A solution of DNA and a solution of TLR agonist in PBS were made and mixed together prior to administration. Note that TLR stimulation via a TLR agonist improves the efficacy of pTVG-SSX2 opt to a greater extent than pTVG-SSX2.
Using this model, HLA-A2-expressing transgenic mice were implanted with synovial sarcoma, X breakpoint 2 (SSX-2)-expressing tumor cells. […], mice were then immunized weekly with control vector (pTVG4), DNA encoding native SSX2 (pTVG-SSX2), or DNA encoding high affinity HLA-A2 epitopes (pTVG-SSX2 opt) in the presence or absence of Pam3CSK4 (TLR1/2) or Gardiquimod (TLR7) agonist.
SSX2 tumor treatment studies: 6- to 8-week old HHDII-DR1 mice were inoculated with 10^5 A2/Sarc-SSX2 cells administered subcutaneously, and then immunized intradermally with DNA vaccines weekly beginning one day after tumor implantation, as previously described (42). TLR agonists or vehicle were co-administered with the vaccine intradermally, and tumor volumes were measured over time using calipers, as described above.

[2] = tested on: purified OT-1 CD8+ T cells; experiment: In vitro co-culture / conditioned medium experiments with APC and OT-1 CD8+ T cells; type: cell-based, mice; conditions: purified DC or B cells pre-treated with TLR agonist, SIINFEKL, 24 hours
Procedure: FIGS. 14A-14D. Changes in PD-1 expression following TLR stimulation are mediated by IL-12 secreted from APCs. Panel A: Purified OT-1 T cells (T), B cells (B), or dendritic cells (DC) were activated with SIINFEKL peptide (SEQ ID NO:1, OVA) or with a non-specific peptide (NS) in the presence of either TLR1/2 (TLR1/2) agonist, TLR7 agonist (TLR7), or media alone. After 24 hours, cells were washed and co-cultured with naïve purified OT-1 CD8+ T cells for an additional 24 hours and then assessed for expression of the indicated surface receptors (4-1BB, CD3, PD-1, LAG3, CTLA-4, and TIM3) by flow cytometry. Shown is the MFI for each marker, with samples assessed in triplicate. Panel B: Purified DC were stimulated in the presence of TLR1/2 agonist, TLR7 agonist, or media alone. […] After 24 hours, cells were assessed for expression of the indicated surface receptors (4-1BB, PD-1, LAG3, and CTLA-4) by flow cytometry. Shown is mean and standard error of the MFI for each marker, with samples assessed in triplicate. […] Culture supernatant was then evaluated for the presence of IL12 p70 by ELISA. […] After 24 hours, cells were assessed for expression of the indicated surface receptors (4-1BB, PD-1, LAG3, and CTLA-4) by flow cytometry. Shown is mean and standard error of the MFI for each marker, with samples assessed in triplicate and are representative of two similar experiments. […]

| Compound | anti-tumor efficacy / tumor growth suppression in combination with DNA vaccine [1] | effect on tumor growth of TLR agonist alone (with vector DNA) [1] | PD-1 expression on OT-1 T cells activated with TLR-agonist-treated APC [2] |
| --- | --- | --- | --- |
| CCNCc1nc2c(N)nc3ccccc3c2n1CC(C)(C)O [Gardiquimod] | significantly increased; also recorded: improved the tumor growth suppression | modest effects | reduced |
| Pam3CSK4 | significantly increased; also recorded: improved the tumor growth suppression | modest effects | reduced |
